Key:
AD38 cells = experiment: Viability of AD38 cells (Promega CellTiter-Glo); assay type: cell-based; details: 10 μM compound, 6 days, DMSO controls = 100%
Experimental: (§1) AD38 cells were then re-suspended with 10 mL of Treatment Medium and counted. Wells of a collagen coated 96-well NUNC microtiter plate were seeded at 50,000/well in 180 μL of Treatment Medium, and 20 μL of in treatment media with either 10% DMSO (Control) or a 10× solution of compound in 10% DMSO was added. Plates were incubated for 6 days at 37° C.
At the end of compound treatment period cell viability was assessed using a Promega CellTiter-Glo protocol. All supernatant was removed the previously treated 96-well microtiter plate, and 50 μL Tetracycline-free treatment medium (DMEM/F12 (1:1), 1× Pen/step (cat#: 30-002-CL, Mediatech, Inc), with 2% FBS, Tet-system approved (cat#: 631106, Clontech), and 1% DMSO was added back to each well. Another 50 μL of CellTiter-Glo reagent solution (Promega, G7573) was then added at room temperature and the contents mixed for 2 minutes on an orbital shaker to induce cell lysis. This was followed by incubation at room temperature for 10 minutes to stabilize the luminescent signal. The luminescence was recorded for 0.2 seconds per well on a Tecan multimode platereader (Infinite M1000 pro). The luminescent signal from each well was normalized against that of untreated (DMSO) control wells. All results in Table 3 were reported with percent viability (with controls being 100%).

HBV = experiment: Viral load production in AD38 cells by quantitative PCR of the core sequence; assay type: cell-based; details: Hepatitis B virus, 144 h, 10 μM compound, 6 days, supernatant qPCR, relative to DMSO control, read-out: AD38 Viral Load (%) (VL with cmpd/VL in DMSO control) at 10 μM
Experimental: as §1
Viral load production was assayed by quantitative PCR of the core sequence. […] The PCR mixture was incubated at 45° C. for 5 minutes, then 95° C. for 10 min, followed by 40 cycles of 10 seconds at 95° C. and 20 seconds at 60° C. Viral load was quantitated against known standards by using ViiA™ 7 Software. Viral load in the supernatant from wells with treated cells were compared against viral load in supernatant from DMSO control wells (≥3 per plate).

O=C(NCc1cnc(C(F)(F)F)nc1)c1ccc2c(c1)NC(=O)c1ccccc1S2(=O)=O [Compound 876]
AD38 Viability Normalized Result (cmpd/DMSO %) at 10 μM (AD38 cells): 101% | activity at 10 µM (HBV): 65.5%

O=C(NCc1nnc(-c2ccc(O)cc2)s1)c1ccc2c(c1)NC(=O)c1ccccc1S2(=O)=O [Compound 807]
AD38 Viability Normalized Result (cmpd/DMSO %) at 10 μM (AD38 cells): 96% | activity at 10 µM (HBV): 0.9%

O=C(NCc1ccc(-c2ccc3[nH]cnc3c2)nc1)c1ccc2c(c1)NC(=O)c1ccccc1S2(=O)=O [Compound 781]
AD38 Viability Normalized Result (cmpd/DMSO %) at 10 μM (AD38 cells): 102% | activity at 10 µM (HBV): 7.3%

O=C(NCc1cnc(-c2ccc(O)cc2F)nc1)c1ccc2c(c1)NC(=O)c1ccccc1S2(=O)=O [Compound 795]
AD38 Viability Normalized Result (cmpd/DMSO %) at 10 μM (AD38 cells): 106% | activity at 10 µM (HBV): 6.4%

Cc1cc2c(cc1C(=O)NCc1cncnc1)NC(=O)c1ccccc1S2 [Compound 495]
AD38 Viability Normalized Result (cmpd/DMSO %) at 10 μM (AD38 cells): 96% | activity at 10 µM (HBV): 23.1%

CC1c2ccc(C(=O)NCc3cncnc3)cc2NC(=O)c2ccccc21 (stereo not shown) [Compound 545]
AD38 Viability Normalized Result (cmpd/DMSO %) at 10 μM (AD38 cells): 95% | activity at 10 µM (HBV): 1.4%

N#Cc1ccc(-c2ncc(CNC(=O)c3ccc4c(c3)NC(=O)c3ccccc3S4(=O)=O)cn2)cc1 [Compound 871, N-((2-(4-cyanophenyl)pyrimidin-5-yl)methyl)-11-oxo-10, 11-dihydrodibenzo[b,f][1,4]thiazepine-8-carboxamide 5,5-dioxide]
AD38 Viability Normalized Result (cmpd/DMSO %) at 10 μM (AD38 cells): 96% | activity at 10 µM (HBV): 1.3%

O=C(NCc1cnc(-c2ccccc2CO)nc1)c1ccc2c(c1)NC(=O)c1ccccc1S2(=O)=O [Compound 844]
AD38 Viability Normalized Result (cmpd/DMSO %) at 10 μM (AD38 cells): 103% | activity at 10 µM (HBV): 10.2%

Source: patent US10392379B2, “Hepatitis B core protein modulators” (Assembly Biosciences, Inc., priority 2015, dated 2019)
